US9302999B2, “Substituted triazoles as herbicides” (E. I. DU PONT DE NEMOURS AND COMPANY, priority 2012, dated 2016)

Key:
Assay type in all cases: in vivo
[1] = system: barnyardgrass (Echinochloa crus-galli); experiment: Test A pre-/postemergence: barnyardgrass; conditions: for Barnyardgrass plant response rating: Postemergence; for Plant response rating, Barnyardgrass: Preemergence
Summary of the method: (§1)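 Soil medium was loam blended with sand; treatments pre- and postemergence were applied concurrently, postemergence at one- to two-leaf stage. Approximately ten days in greenhouse preceded visual comparison with untreated controls, scored 0 (no effect) to 100 (complete control).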

[2] = system: crabgrass, large (large crabgrass, Digitaria sanguinalis); experiment: Test A pre-/postemergence: crabgrass, large; conditions: for Crabgrass, Large plant response rating: Postemergence; for Plant response rating, Crabgrass, Large: Preemergence
Summary of the method: as §1

[3] = system: foxtail, giant (giant foxtail, Setaria faberii); experiment: Test A pre-/postemergence: foxtail, giant; conditions: for Foxtail, Giant plant response rating: Postemergence; for Plant response rating, Foxtail, Giant: Preemergence
Summary of the method: as §1

[4] = system: morningglory (Ipomoea spp.); experiment: Test A pre-/postemergence: morningglory; conditions: for Morningglory plant response rating: Postemergence; for Plant response rating, Morningglory: Preemergence
Summary of the method: as §1

[5] = system: pigweed (Amaranthus retroflexus); experiment: Test A pre-/postemergence: pigweed; conditions: for Pigweed plant response rating: Postemergence; for Plant response rating, Pigweed: Preemergence
Summary of the method: as §1

[6] = system: velvetleaf (Abutilon theophrasti); experiment: Test A pre-/postemergence: velvetleaf; conditions: for Velvetleaf plant response rating: Postemergence; for Plant response rating, Velvetleaf: Preemergence
Summary of the method: as §1

[7] = system: wheat (Triticum aestivum); experiment: Test A pre-/postemergence: wheat; conditions: for Wheat plant response rating: Postemergence; for Plant response rating, Wheat: Preemergence
Summary of the method: as §1

[8] = system: corn (Zea mays); experiment: Test A pre-/postemergence: corn; conditions: for Corn plant response rating: Postemergence; for Plant response rating, Corn: Preemergence
Summary of the method: as §1

[9] = system: rice (Oryza sativa); experiment: Test C flooded paddy test: rice; conditions: scale 0 to 100 (0 no effect, 100 complete control)
Summary of the method: (§2)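 Visual ratings from 0 (no effect) to 100 (complete control), made against untreated controls 13 to 15 days after treatment, express plant response. Compounds went directly into paddy water over 2-leaf stage plants in pots flooded to 3 cm.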

[10] = system: sedge, umbrella (small-flower umbrella sedge, Cyperus difformis); experiment: Test C flooded paddy test: sedge, umbrella; conditions: scale 0 to 100 (0 no effect, 100 complete control)
Summary of the method: as §2

[11] = system: ducksalad (Heteranthera limosa); experiment: Test C flooded paddy test: ducksalad; conditions: scale 0 to 100 (0 no effect, 100 complete control)
Summary of the method: as §2

[12] = system: barnyardgrass (Echinochloa crus-galli); experiment: Test C flooded paddy test: barnyardgrass; conditions: scale 0 to 100 (0 no effect, 100 complete control)
Summary of the method: as §2

[13] = 125 g ai/ha, 0 to 100 scale, 0 is no effect, 100 is complete control
[14] = 500 g ai/ha, visual rating on 0 to 100 scale (0 no effect, 100 complete control), approximately ten days
[15] = 125 g ai/ha, 0 to 100 scale (0 no effect, 100 complete control)
[16] = 500 g ai/ha, 0 to 100 scale, 0 is no effect, 100 is complete control
[17] = Flood (flooded paddy test), 62 g ai/ha, visual rating after 13 to 15 days
[18] = Flood (flooded paddy test), 125 g ai/ha, visual rating after 13 to 15 days
[19] = Flood (flooded paddy test), 250 g ai/ha, visual rating after 13 to 15 days

COc1nn(-c2ccc(C(F)(F)F)cc2)nc1Cc1cccc(C(F)(F)F)c1 [Compound 29]
90: Crabgrass, Large plant response rating [2, 13] | Crabgrass, Large plant response rating [2, 14] | Plant response rating, Crabgrass, Large [2, 15] | Foxtail, Giant plant response rating [3, 14] | Plant response rating, Pigweed [5, 16]
80: Plant response rating, Foxtail, Giant [3, 15] | Morningglory plant response rating [4, 13] | Velvetleaf plant response rating [6, 14]
40: Barnyardgrass plant response rating [1, 14]
60: Foxtail, Giant plant response rating [3, 13] | Velvetleaf plant response rating [6, 13] | Plant response rating, Sedge, Umbrella [10, 17]
75: Plant response rating, Sedge, Umbrella [10, 19]
70: Plant response rating, Sedge, Umbrella [10, 18]
30: Wheat plant response rating [7, 14]
10: Plant response rating, Barnyardgrass [1, 15] | Plant response rating, Morningglory [4, 16]
100: Plant response rating, Crabgrass, Large [2, 16] | Plant response rating, Foxtail, Giant [3, 16] | Morningglory plant response rating [4, 14] | Pigweed plant response rating [5, 13] | Pigweed plant response rating [5, 14]
20: Barnyardgrass plant response rating [1, 13] | Corn plant response rating [8, 13] | Corn plant response rating [8, 14] | Plant response rating, Barnyardgrass [12, 19]
50: Plant response rating, Barnyardgrass [1, 16] | Plant response rating, Pigweed [5, 15] | Plant response rating, Velvetleaf [6, 16] | Plant response rating, Sedge, Umbrella ([10]; Flood, 31 g ai/ha)
0: Plant response rating, Morningglory [4, 15] | Plant response rating, Velvetleaf [6, 15] | Wheat plant response rating [7, 13] | Plant response rating, Wheat [7, 15] | Plant response rating, Wheat [7, 16] | Plant response rating, Corn [8, 15] | Plant response rating, Corn [8, 16] | Plant response rating, Rice [9, 17] | Plant response rating, Rice [9, 18] | Plant response rating, Rice [9, 19] | Plant response rating, Rice ([9]; Flood, 31 g ai/ha) | Plant response rating, Ducksalad [11, 17] | Plant response rating, Ducksalad [11, 18] | Plant response rating, Ducksalad [11, 19] | Plant response rating, Ducksalad ([11]; Flood, 31 g ai/ha) | Plant response rating, Barnyardgrass [12, 17] | Plant response rating, Barnyardgrass [12, 18] | Plant response rating, Barnyardgrass ([12]; Flood, 31 g ai/ha)

Cc1nn(-c2ccc(F)cc2)nc1Cc1ccnc(OCC(F)(F)F)c1 [Compound 33]
50: Pigweed plant response rating [5, 14]
10: Crabgrass, Large plant response rating [2, 14] | Plant response rating, Crabgrass, Large [2, 16] | Foxtail, Giant plant response rating [3, 14] | Morningglory plant response rating [4, 14] | Pigweed plant response rating [5, 13] | Corn plant response rating [8, 14]
0: Barnyardgrass plant response rating [1, 13] | Barnyardgrass plant response rating [1, 14] | Plant response rating, Barnyardgrass [1, 15] | Plant response rating, Barnyardgrass [1, 16] | Crabgrass, Large plant response rating [2, 13] | Plant response rating, Crabgrass, Large [2, 15] | Foxtail, Giant plant response rating [3, 13] | Plant response rating, Foxtail, Giant [3, 15] | Plant response rating, Foxtail, Giant [3, 16] | Morningglory plant response rating [4, 13] | Plant response rating, Morningglory [4, 15] | Plant response rating, Morningglory [4, 16] | Plant response rating, Pigweed [5, 15] | Plant response rating, Pigweed [5, 16] | Velvetleaf plant response rating [6, 13] | Velvetleaf plant response rating [6, 14] | Plant response rating, Velvetleaf [6, 15] | Plant response rating, Velvetleaf [6, 16] | Wheat plant response rating [7, 13] | Wheat plant response rating [7, 14] | Plant response rating, Wheat [7, 15] | Plant response rating, Wheat [7, 16] | Corn plant response rating [8, 13] | Plant response rating, Corn [8, 15] | Plant response rating, Corn [8, 16] | Plant response rating, Rice [9, 17] | Plant response rating, Rice [9, 18] | Plant response rating, Rice [9, 19] | Plant response rating, Rice ([9]; Flood, 31 g ai/ha) | Plant response rating, Sedge, Umbrella [10, 17] | Plant response rating, Sedge, Umbrella [10, 18] | Plant response rating, Sedge, Umbrella [10, 19] | Plant response rating, Sedge, Umbrella ([10]; Flood, 31 g ai/ha) | Plant response rating, Ducksalad [11, 17] | Plant response rating, Ducksalad [11, 18] | Plant response rating, Ducksalad [11, 19] | Plant response rating, Ducksalad ([11]; Flood, 31 g ai/ha) | Plant response rating, Barnyardgrass [12, 17] | Plant response rating, Barnyardgrass [12, 18] | Plant response rating, Barnyardgrass [12, 19] | Plant response rating, Barnyardgrass ([12]; Flood, 31 g ai/ha)

Cc1nn(-c2ccc(F)cc2)nc1Cn1cnc(C(F)(F)F)c1Cl [Compound 36]
0: Barnyardgrass plant response rating [1, 13] | Barnyardgrass plant response rating [1, 14] | Plant response rating, Barnyardgrass [1, 15] | Plant response rating, Barnyardgrass [1, 16] | Crabgrass, Large plant response rating [2, 13] | Crabgrass, Large plant response rating [2, 14] | Plant response rating, Crabgrass, Large [2, 15] | Foxtail, Giant plant response rating [3, 13] | Foxtail, Giant plant response rating [3, 14] | Plant response rating, Foxtail, Giant [3, 15] | Plant response rating, Foxtail, Giant [3, 16] | Morningglory plant response rating [4, 13] | Morningglory plant response rating [4, 14] | Plant response rating, Morningglory [4, 15] | Plant response rating, Morningglory [4, 16] | Pigweed plant response rating [5, 13] | Plant response rating, Pigweed [5, 15] | Plant response rating, Pigweed [5, 16] | Velvetleaf plant response rating [6, 13] | Plant response rating, Velvetleaf [6, 15] | Plant response rating, Velvetleaf [6, 16] | Wheat plant response rating [7, 13] | Wheat plant response rating [7, 14] | Plant response rating, Wheat [7, 15] | Plant response rating, Wheat [7, 16] | Corn plant response rating [8, 13] | Corn plant response rating [8, 14] | Plant response rating, Corn [8, 15] | Plant response rating, Corn [8, 16] | Plant response rating, Rice [9, 17] | Plant response rating, Rice [9, 18] | Plant response rating, Rice [9, 19] | Plant response rating, Rice ([9]; Flood, 31 g ai/ha) | Plant response rating, Sedge, Umbrella [10, 17] | Plant response rating, Sedge, Umbrella [10, 18] | Plant response rating, Sedge, Umbrella [10, 19] | Plant response rating, Sedge, Umbrella ([10]; Flood, 31 g ai/ha) | Plant response rating, Ducksalad [11, 17] | Plant response rating, Ducksalad [11, 18] | Plant response rating, Ducksalad [11, 19] | Plant response rating, Ducksalad ([11]; Flood, 31 g ai/ha) | Plant response rating, Barnyardgrass [12, 17] | Plant response rating, Barnyardgrass [12, 18] | Plant response rating, Barnyardgrass [12, 19] | Plant response rating, Barnyardgrass ([12]; Flood, 31 g ai/ha)
20: Pigweed plant response rating [5, 14]
10: Plant response rating, Crabgrass, Large [2, 16] | Velvetleaf plant response rating [6, 14]
